From patent US20240409549A1, “NEW CRYSTAL FORM AND USE OF NITROGENOUS TRICYCLIC COMPOUND” (SUNSHINE LAKE PHARMA CO., LTD., priority 2021, published 2024)

How the values were obtained:
[1] = Pharmacokinetic experiment, oral capsules in Beagle dogs; assay type: in vivo; conditions: male Beagle dogs, 5 mg/kg
Experimental: The crystal form of the compound having Formula (I) was filled into capsules, which were used for oral administration.
Three male Beagle dogs weighing 8-12 kg were orally administered with capsules containing the test sample at a dose of 5 mg/kg, and blood samples were taken at time points of 0.25 h, 0.5 h, 1.0 h, 2.0 h, 4.0 h, 6.0 h, 8.0 h and 24 h. Standard curve was plotted based on concentrations of the samples in a suitable range, the concentration of the test sample in the plasma sample was measured and quantified by AB SCIEX API4000 LC-MS/MS at MRM mode. Pharmacokinetic parameters were calculated according to drug concentration -time curve using a noncompartmental method by WinNonLin 6.3 software.

[2] = Stability experiment: high-temperature test; assay type: physicochemical; conditions: for Purity (%): HPLC
Experimental: (§1) (1) High-temperature test: A batch of the test sample was taken into a flat weighing bottle, divided into ≤5 mm thick thin layer. The sample was placed at 60° C. for 30 days. The sample was then sampled at day 5, day 13 and day 30, and the change of the sample's color was observed. The purity of the sample was detected by HPLC.

[3] = Stability experiment: high-humidity test; assay type: physicochemical; conditions: for Purity (%): HPLC; for Purity (%) / Appearance: High-humidity 25° C., RH 90%±5%
Experimental: (2) High-humidity test: take a batch of the test sample into the flat weighing bottle, divided into ≤5 mm thick thin layer. The samples were sampled at 25° C. and RH for 90%±5% for 30 days. The samples were sampled at day 5, 13 and day 30, and the sample color was observed. The purity of the sample was determined by HPLC.

[4] = Stability experiment: photostability (lighting) test; assay type: physicochemical; conditions: for Purity (%): HPLC; for Purity (%) / Appearance: Lighting, open light box with UV
Source text: as §1, with “(3) Photostability Test:” for “(1) High-temperature test:”, “placed in an opened light box (with UV)” for “placed”, “the illuminance […], UV light≥0.7 w/m^2” for “60° C.”

[5] = Hygroscopicity experiment (dynamic vapor sorption); assay type: physicochemical
Experimental: The hygroscopicity of the present invention is measured using the DVS INT-Std dynamic moisture and gas adsorption analyzer of the Surface Measurement Systems Company in UK. The humidity test range was 0%-95%, the air flow was 200 mL/min, the temperature was 25° C., test point: take one test point per […] 5% humidity.
An appropriate amount of the test sample was taken and the hygroscopicity of the test sample was tested by dynamic moisture adsorption device. The description of the hygroscopic characteristics and the definition of the hygroscopic weight gain (Appendix 9103 of Chinese Pharmacopoeia 2020 Edition, Guidelines for Drug Hygroscopicity Tests, experimental conditions: 25° C.±1° C., 80%±2% relative humidity) are described in the table below: […]

[6] = High-temperature 60° C., day 13
[7] = High-temperature 60° C., day 30
[8] = day 0 (start, common to all conditions)

O=C(O)c1ccc2c(c1)Oc1ccc(OCc3c(-c4c(Cl)cccc4Cl)noc3C3CC3)nc1C1(CC1)C2 [Crystal form I, 2-((5-cyclopropyl-3-(2,6-dichlorophenyl)isoxazol-4-yl)methoxy)-10H-spiro[benzo[6,7]oxepino[3,2-b]pyridine-11,1′-cyclopropane]-7-carboxylic acid]
AUC(0-t) ([1]; dog, plasma): 1020 ng·h/mL | Cmax ([1]; dog, plasma): 389 ng/mL | Tmax [1]: 1.67 h | Purity (%) ([2]; High-temperature 60° C., day 5): 99.83% | Purity (%) [2, 6]: 99.91% | Purity (%) [2, 7]: 99.70% | Purity (%) [2, 8]: 99.88% | Appearance ([2]; High-temperature 60° C., day 5): White | Appearance [2, 6]: White | Appearance [2, 7]: White | Appearance [2, 8]: White | crystal structure stability ([2]; high temperature conditions): remains basically unchanged | Purity (%) ([3]; day 5): 99.81% | Purity (%) ([3]; day 13): 99.70% | Purity (%) ([3]; day 30): 99.82% | Appearance ([3]; day 5): White | Appearance ([3]; day 13): White | Appearance ([3]; day 30): White | crystal structure stability ([3]; high humidity conditions): remains basically unchanged | Purity (%) ([4]; day 5): 99.88% | Purity (%) ([4]; day 13): 99.59% | Purity (%) ([4]; day 30): 99.83% | Appearance ([4]; day 5): White | Appearance ([4]; day 13): White | Appearance ([4]; day 30): White | crystal structure stability ([4]; lighting conditions): remains basically unchanged | hygroscopic weight gain ([5]; after equilibrium at relative humidity of 80%, 25° C.): less than 0.2% | hygroscopic characteristics ([5]; relative humidity of 80%, criterion of Chinese Pharmacopoeia 2020 Appendix 9103): no or almost no hygroscopicity
